Results: ChEMBL document CHEMBL1155491, “Acylurea connected straight chain hydroxamates as novel histone deacetylase inhibitors: Synthesis, SAR, and in vivo antitumor activity” (Bioorg Med Chem Lett, 2010)
Converted amounts (≈) assume the structure as drawn. The source made the active and inactive calls. No cut-off for these calls is given here.

Key:
Histone deacetylase 11 = target: T1, Histone deacetylase 11 (Homo sapiens, UniProt Q96DB2); assay: Inhibition of HDAC11
T1 sequence (Q96DB2 whole entry): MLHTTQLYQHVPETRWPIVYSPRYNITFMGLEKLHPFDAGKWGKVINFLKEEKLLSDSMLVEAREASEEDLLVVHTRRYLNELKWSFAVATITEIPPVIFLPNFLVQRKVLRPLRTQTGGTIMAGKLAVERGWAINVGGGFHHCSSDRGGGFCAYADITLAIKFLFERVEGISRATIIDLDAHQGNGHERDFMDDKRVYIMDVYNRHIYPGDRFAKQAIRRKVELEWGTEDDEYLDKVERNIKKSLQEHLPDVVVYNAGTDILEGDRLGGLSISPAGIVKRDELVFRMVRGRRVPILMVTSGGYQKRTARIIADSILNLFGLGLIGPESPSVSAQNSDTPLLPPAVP

[1] = Half life in rat liver microsome; format: ADME; conditions: liver microsomes
HCT-116 = assay: Antiproliferative activity against human HCT116 cells; format: functional, cell-based
Histone deacetylase 8 = target: T2, Histone deacetylase 8 (Homo sapiens, UniProt Q9BY41); assay: Inhibition of HDAC8
T2 sequence (Q9BY41 whole entry): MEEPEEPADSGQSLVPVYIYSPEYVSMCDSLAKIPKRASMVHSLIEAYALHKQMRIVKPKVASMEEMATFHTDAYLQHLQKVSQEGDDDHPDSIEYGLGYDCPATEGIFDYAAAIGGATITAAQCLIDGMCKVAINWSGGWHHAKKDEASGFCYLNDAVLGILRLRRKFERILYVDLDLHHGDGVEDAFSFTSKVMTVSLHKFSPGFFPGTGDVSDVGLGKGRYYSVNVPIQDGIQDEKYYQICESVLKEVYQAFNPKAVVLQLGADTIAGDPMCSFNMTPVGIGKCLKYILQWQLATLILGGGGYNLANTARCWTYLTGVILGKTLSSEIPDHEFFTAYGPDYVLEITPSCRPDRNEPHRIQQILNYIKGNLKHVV

PC-3 = assay: Antiproliferative activity against human PC3 cells; format: functional, cell-based
[2] = Octanol-water distribution coefficient, log D of the compound; format: physicochemical
Histone deacetylase 2 = Histone deacetylase 2 (Homo sapiens, UniProt Q92769)
Histone deacetylase 1 [3] = target: T3, Histone deacetylase 1 (Homo sapiens, UniProt Q13547); assay: Inhibition of HDAC1 in human COLO205 cells assessed as induction of histone H3 acetylation at 10 uM by Western-immuno blotting; format: cell-based; conditions: COLO 205
[4] = Half life in human liver microsome; format: ADME; conditions: liver microsomes
Histone deacetylase 5 = Histone deacetylase 5 (Homo sapiens, UniProt Q9UQL6); assay: Inhibition of HDAC5
Histone deacetylase 7 = Histone deacetylase 7 (Homo sapiens, UniProt Q8WUI4); assay: Inhibition of HDAC7
[5] = Half life in mouse liver microsome; format: ADME; conditions: liver microsomes
[6] = Thermodynamic solubility at pH 7.4; format: physicochemical; conditions: buffer, read-out: Therm_solubility
[7] = target: T4, Protein deacetylase HDAC6 (Homo sapiens, UniProt Q9UBN7); assay: Inhibition of HDAC6
T4 sequence (Q9UBN7 whole entry): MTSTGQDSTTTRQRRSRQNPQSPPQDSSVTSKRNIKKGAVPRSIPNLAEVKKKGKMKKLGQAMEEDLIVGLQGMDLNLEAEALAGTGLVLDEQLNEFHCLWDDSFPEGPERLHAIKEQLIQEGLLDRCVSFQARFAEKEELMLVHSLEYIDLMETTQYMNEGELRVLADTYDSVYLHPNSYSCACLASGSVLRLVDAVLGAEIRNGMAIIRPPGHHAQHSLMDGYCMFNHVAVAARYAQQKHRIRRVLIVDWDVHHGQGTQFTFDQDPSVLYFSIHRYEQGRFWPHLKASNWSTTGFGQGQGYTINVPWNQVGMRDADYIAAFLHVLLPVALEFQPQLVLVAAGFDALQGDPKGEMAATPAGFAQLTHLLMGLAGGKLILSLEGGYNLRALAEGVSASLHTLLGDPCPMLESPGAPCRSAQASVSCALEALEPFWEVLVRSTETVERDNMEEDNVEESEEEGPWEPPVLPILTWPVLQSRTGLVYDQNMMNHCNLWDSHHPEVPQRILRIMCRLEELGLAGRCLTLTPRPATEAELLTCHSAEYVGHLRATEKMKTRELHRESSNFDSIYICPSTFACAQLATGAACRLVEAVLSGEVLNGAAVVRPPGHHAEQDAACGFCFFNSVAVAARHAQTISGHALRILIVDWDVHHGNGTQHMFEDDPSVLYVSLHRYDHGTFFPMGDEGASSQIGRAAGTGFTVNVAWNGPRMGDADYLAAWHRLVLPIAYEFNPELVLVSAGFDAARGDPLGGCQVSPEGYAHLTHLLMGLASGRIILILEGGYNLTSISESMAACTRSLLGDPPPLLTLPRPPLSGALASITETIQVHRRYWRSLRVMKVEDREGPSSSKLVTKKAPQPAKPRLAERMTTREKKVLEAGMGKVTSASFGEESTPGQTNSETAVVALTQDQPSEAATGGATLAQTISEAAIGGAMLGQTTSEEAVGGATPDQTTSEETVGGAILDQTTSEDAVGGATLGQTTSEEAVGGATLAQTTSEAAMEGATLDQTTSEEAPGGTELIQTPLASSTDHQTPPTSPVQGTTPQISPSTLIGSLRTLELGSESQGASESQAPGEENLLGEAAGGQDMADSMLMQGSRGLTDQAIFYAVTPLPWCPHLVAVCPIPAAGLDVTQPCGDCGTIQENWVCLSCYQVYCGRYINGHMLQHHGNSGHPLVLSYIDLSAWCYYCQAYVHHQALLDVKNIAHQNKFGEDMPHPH

Histone deacetylase 1 [8] = target: T3, Histone deacetylase 1
Histone deacetylase 3 = Histone deacetylase 3 (Homo sapiens, UniProt O15379); assay: Inhibition of HDAC3
[9] = target: T5, Polyamine deacetylase HDAC10 (Homo sapiens, UniProt Q969S8); assay: Inhibition of HDAC10
T5 sequence (Q969S8 whole entry): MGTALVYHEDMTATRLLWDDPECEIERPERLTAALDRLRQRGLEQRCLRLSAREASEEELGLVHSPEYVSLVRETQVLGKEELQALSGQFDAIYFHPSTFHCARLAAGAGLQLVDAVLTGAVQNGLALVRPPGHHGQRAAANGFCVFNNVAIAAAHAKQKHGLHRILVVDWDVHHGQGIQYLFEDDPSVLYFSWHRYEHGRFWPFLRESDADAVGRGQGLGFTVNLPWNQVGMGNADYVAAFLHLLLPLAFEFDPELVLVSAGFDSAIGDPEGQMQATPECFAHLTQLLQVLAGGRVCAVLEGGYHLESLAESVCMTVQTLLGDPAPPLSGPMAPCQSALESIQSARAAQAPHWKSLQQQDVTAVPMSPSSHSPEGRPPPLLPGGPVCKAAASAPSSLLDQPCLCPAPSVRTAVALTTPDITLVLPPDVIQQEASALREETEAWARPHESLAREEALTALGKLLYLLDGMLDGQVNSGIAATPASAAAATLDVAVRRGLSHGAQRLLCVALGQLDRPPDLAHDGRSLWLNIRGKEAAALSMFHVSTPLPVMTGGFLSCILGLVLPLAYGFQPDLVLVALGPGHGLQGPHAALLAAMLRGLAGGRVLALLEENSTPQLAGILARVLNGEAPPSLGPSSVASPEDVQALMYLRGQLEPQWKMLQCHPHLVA

Histone deacetylase 4 = Histone deacetylase 4 (Homo sapiens, UniProt P56524); assay: Inhibition of HDAC4
Histone deacetylase 1 [10] = target: T3, Histone deacetylase 1; remark: listed apart in the source
[11] = Solubility at pH 7; format: physicochemical; conditions: buffer
Histone deacetylase 9 = Histone deacetylase 9 (Homo sapiens, UniProt Q9UKV0); assay: Inhibition of HDAC9
A2780 = assay: Antiproliferative activity against human A2780 cells; format: functional, cell-based

T3 sequence (Q13547 whole entry): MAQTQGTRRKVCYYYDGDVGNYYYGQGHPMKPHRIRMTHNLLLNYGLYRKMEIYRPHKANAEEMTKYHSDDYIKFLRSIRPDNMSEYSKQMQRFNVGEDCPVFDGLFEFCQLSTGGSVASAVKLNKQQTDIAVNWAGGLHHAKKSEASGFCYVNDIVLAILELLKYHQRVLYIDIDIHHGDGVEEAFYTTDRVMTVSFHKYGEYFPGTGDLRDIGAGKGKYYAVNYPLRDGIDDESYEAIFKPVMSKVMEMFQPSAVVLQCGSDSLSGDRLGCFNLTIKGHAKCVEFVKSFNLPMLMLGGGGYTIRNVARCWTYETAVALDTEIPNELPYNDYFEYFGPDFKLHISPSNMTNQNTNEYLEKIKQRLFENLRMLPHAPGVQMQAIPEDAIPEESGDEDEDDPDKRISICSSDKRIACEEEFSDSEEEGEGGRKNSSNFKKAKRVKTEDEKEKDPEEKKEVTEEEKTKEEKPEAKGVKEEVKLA
Chain of Histone deacetylase 4 (P56524 whole entry): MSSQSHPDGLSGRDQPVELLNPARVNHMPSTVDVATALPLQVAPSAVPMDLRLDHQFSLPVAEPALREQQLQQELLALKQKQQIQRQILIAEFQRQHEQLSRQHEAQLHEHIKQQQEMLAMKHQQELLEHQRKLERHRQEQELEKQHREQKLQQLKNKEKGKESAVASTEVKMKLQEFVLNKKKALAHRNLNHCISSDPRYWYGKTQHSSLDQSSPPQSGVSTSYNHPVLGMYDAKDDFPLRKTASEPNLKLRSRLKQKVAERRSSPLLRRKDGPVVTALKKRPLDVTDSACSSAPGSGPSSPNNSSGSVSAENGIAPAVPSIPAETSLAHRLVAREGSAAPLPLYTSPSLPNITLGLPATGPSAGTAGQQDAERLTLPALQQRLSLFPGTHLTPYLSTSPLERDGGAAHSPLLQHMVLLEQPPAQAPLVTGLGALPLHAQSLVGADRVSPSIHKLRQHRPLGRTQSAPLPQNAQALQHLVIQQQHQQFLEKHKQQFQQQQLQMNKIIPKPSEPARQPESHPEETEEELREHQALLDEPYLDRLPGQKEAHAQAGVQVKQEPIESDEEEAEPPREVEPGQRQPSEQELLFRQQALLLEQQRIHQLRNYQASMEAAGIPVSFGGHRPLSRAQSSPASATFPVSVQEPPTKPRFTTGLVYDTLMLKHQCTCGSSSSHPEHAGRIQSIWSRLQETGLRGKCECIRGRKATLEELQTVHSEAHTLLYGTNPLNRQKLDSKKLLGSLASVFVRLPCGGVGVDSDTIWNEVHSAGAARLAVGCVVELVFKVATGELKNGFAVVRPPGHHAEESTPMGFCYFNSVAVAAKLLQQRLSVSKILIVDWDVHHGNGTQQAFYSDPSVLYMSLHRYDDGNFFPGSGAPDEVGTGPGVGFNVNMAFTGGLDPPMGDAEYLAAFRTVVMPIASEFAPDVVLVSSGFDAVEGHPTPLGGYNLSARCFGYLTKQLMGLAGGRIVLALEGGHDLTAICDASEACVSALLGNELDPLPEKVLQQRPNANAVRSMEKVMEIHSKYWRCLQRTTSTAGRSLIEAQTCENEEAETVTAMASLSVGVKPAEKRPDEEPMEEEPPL
Chain of Histone deacetylase 2 (Q92769 whole entry): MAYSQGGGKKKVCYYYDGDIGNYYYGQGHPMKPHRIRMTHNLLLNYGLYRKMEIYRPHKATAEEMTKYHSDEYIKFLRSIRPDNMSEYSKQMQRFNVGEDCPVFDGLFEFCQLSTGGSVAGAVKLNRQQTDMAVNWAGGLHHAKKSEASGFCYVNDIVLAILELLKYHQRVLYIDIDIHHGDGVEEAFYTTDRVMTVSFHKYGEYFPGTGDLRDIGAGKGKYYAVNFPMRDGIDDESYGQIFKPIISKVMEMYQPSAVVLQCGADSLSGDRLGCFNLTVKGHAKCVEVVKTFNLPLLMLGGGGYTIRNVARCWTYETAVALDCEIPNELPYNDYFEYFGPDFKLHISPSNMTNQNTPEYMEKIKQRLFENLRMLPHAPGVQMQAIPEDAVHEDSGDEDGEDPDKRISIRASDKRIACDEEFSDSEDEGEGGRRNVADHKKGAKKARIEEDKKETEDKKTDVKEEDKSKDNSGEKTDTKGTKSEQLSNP
Chain of Histone deacetylase 7 (Q8WUI4 whole entry, looked up): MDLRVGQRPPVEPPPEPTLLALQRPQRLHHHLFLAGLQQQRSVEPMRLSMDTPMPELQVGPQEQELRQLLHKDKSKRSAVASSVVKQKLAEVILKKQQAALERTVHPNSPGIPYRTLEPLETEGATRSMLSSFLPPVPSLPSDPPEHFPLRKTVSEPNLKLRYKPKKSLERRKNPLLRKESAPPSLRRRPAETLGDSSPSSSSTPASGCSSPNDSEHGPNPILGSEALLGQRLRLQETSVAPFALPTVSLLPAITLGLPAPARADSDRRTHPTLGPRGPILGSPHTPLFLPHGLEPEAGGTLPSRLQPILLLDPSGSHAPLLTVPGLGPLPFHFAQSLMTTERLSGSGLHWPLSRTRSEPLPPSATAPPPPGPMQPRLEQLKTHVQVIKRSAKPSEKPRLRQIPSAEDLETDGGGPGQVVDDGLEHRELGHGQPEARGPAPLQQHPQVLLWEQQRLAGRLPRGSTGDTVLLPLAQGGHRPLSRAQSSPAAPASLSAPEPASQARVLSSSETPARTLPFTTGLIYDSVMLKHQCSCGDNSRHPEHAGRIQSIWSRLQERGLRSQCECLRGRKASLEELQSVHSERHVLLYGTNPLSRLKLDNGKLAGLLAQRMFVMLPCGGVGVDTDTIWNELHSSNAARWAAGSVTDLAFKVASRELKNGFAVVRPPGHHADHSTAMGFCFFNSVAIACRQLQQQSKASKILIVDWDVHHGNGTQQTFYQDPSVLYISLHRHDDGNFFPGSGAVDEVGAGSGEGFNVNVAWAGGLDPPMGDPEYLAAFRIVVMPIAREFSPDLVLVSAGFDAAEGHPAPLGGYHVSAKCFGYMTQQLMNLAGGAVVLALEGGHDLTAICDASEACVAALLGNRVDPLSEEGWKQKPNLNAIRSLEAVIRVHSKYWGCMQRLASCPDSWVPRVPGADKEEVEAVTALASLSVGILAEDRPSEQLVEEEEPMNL
Chain of Histone deacetylase 5 (Q9UQL6 whole entry): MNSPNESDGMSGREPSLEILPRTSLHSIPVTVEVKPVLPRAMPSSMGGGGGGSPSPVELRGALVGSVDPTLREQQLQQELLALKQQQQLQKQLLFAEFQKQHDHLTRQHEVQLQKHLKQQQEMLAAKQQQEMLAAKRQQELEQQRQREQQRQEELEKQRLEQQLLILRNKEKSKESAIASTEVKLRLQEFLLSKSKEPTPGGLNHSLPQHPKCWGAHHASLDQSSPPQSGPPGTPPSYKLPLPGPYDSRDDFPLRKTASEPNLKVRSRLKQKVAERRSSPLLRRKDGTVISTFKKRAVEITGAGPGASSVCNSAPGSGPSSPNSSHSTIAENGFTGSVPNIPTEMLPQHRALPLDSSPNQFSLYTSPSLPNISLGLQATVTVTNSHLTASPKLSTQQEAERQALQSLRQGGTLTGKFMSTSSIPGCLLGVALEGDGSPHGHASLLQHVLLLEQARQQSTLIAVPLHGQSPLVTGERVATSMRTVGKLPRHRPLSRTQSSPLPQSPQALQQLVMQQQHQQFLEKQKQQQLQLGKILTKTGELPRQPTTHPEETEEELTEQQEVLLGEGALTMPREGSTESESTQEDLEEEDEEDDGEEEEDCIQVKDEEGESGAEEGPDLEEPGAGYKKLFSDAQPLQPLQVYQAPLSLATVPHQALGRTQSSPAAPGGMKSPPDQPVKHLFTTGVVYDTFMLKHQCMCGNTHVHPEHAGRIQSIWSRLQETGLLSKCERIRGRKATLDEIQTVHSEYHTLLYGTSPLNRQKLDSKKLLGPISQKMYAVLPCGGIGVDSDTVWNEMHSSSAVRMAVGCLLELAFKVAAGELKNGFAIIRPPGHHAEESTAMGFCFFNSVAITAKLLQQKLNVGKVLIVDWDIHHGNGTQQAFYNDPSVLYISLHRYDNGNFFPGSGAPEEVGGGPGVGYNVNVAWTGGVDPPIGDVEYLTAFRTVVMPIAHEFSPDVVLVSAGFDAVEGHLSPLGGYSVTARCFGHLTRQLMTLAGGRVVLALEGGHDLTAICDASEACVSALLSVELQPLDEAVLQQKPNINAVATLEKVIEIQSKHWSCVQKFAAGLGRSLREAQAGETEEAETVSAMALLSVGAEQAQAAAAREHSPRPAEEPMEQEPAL
Chain of Histone deacetylase 3 (O15379 whole entry): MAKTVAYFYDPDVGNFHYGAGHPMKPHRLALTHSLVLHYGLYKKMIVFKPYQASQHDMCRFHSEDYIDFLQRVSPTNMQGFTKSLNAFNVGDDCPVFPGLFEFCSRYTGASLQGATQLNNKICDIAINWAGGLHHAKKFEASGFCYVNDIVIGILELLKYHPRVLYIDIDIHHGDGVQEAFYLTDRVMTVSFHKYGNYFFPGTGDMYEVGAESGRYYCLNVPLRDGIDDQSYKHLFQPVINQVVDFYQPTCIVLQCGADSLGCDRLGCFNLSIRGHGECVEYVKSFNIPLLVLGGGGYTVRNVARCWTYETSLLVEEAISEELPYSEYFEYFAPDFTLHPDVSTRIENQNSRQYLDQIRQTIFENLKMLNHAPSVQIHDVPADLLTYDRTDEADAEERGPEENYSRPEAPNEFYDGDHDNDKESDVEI

## O=C(CCCCCNC(=O)NC(=O)c1ccc(Br)cc1)NO
Histone deacetylase 11
  Ki: 9 nM
[1]
  half-life: 53 min
HCT-116
  IC50: 600 nM
Histone deacetylase 8
  Ki: 315 nM
PC-3
  IC50: 660 nM
[2]
  logD: 1.72
Histone deacetylase 2
  Ki: 12 nM
Histone deacetylase 1 [3]
  Activity: Active
[4]
  half-life: > 60 min
Histone deacetylase 5
  Ki: 13 nM
Histone deacetylase 7
  Ki: 31 nM
[5]
  half-life: 31 min
[6]
  solubility thermodynamic: 15 µg/mL (≈ 40.3 µM)
[7]
  Ki: 8 nM
Histone deacetylase 1 [8]
  IC50: 13 nM
  Ki: 8 nM
Histone deacetylase 3
  Ki: 8 nM
[9]
  Ki: 9 nM
Histone deacetylase 4
  Ki: 6 nM
Histone deacetylase 1 [10]
  IC50: 870 nM
[11]
  solubility: 51 µM (≈ 19 µg/mL)
Histone deacetylase 9
  Ki: 6 nM
A2780
  IC50: 450 nM
